Measurements taken from US9815787B2, “Sulfonamide derivative or pharmaceutically acceptable acid addition salt thereof” (UNIVERSITY OF TSUKUBA, priority 2013, dated 2017).

Target: T1, OX2R (Homo sapiens, UniProt O43614)
T1 construct: expressed in transfected cells; host or cells: CHO (Chinese hamster ovary) cells constitutively expressing the OX2R gene and NFAT-luciferase (CHOOX2R)
T1 sequence (O43614 1-444): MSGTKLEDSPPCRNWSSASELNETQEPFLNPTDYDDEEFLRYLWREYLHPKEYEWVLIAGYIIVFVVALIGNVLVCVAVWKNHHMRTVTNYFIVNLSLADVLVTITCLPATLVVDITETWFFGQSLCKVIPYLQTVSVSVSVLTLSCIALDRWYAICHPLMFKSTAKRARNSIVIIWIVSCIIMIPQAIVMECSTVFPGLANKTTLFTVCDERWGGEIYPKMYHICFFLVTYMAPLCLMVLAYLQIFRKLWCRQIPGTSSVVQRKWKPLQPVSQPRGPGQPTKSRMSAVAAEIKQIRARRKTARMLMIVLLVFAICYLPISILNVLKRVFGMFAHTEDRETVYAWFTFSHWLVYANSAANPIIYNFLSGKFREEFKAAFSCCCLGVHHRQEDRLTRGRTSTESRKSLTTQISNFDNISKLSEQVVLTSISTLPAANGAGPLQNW
Assay: Evaluation of agonist activity against OX2R (CHOOX2R cells, Fura2AM fluorescence, FDSS3000)
Type: cell-based
How it was run: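 CHO cells stably expressing human OX2R (and NFAT-luciferase), cultured 48 h in 5% FBS DMEM. Agonist response read as change in Fura2AM fluorescence on compound addition in HEPES buffer. Final compound concentrations 0.1, 1.0 or 10 μM; 1% DMSO.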

[1] = test compound 0.1 μM; relative to orexin-A as full agonist (100%); CHOOX2R cells
[2] = test compound 1.0 μM; relative to orexin-A as full agonist (100%); CHOOX2R cells
[3] = test compound 10 μM; relative to orexin-A as full agonist (100%); CHOOX2R cells
[4] = test compound 0.1 μM; CHOOX2R cells; relative to orexin-A as full agonist (100%)
[5] = test compound 1.0 μM; CHOOX2R cells; relative to orexin-A as full agonist (100%)
[6] = test compound 10 μM; CHOOX2R cells; relative to orexin-A as full agonist (100%)
[7] = OX2R agonist activity; CHOOX2R cells
[8] = conversion with orexin-A as full agonist (maximum agonist activity 100%)

SMILES	Response (0.1 μM (%)) [1] [%]	Response (1.0 μM (%)) [2] [%]	Response (10 μM (%)) [3] [%]	Response (0.1 μM (%)) [4] [%]	Response (1.0 μM (%)) [5] [%]	Response (10 μM (%)) [6] [%]	EC50 [7] [nM]	Emax [8] [%]
COc1cc(C)c(-c2cccc(C(=O)N(C)C)c2)cc1S(=O)(=O)Nc1cccc(NCCNC(=O)c2cccc(F)c2)c1 [Example 102, 5′-(N-(3-((2-(3-fluorobenzamido)ethyl)amino)phenyl)sulfamoyl)-4′-methoxy-N,N,2′-trimethyl-[1,1′-biphenyl]-3-carboxamide]	61	83	85	–	–	–	–	–
COc1ccc(-c2cccc(C(=O)N3CCC3)c2)cc1S(=O)(=O)Nc1cccc(NCCNC(=O)c2ccccc2Cl)c1 [Example 82, N-(2-((3-(3′-(azetidine-1-carbonyl)-4-methoxy-[1,1′-biphenyl]-3-ylsulfonamido)phenyl)amino)ethyl)-2-chlorobenzamide]	–	–	–	<5	51	74	–	–
COc1ccc(-c2cccc(C(=O)N(C)C)c2)cc1S(=O)(=O)Nc1cccc(NCCNC(=O)c2ncccc2Cl)c1 [Example 51, 3-chloro-N-(2-((3-(3′-(dimethylcarbamoyl)-4-methoxy-[1,1′-biphenyl]-3-ylsulfonamido)phenyl)amino)ethyl)picolinamide]	–	–	–	<5	9	87	3280	87
CNC(=O)c1cccc(-c2ccc(OC)c(S(=O)(=O)Nc3cccc(NCCNC(=O)c4ccccc4OC)c3)c2)c1 [Example 73, 4′-methoxy-3′-(N-(3-((2-(2-methoxybenzamido)ethyl)amino)phenyl)sulfamoyl)-N-methyl-[1,1′-biphenyl]-3-carboxamide]	–	–	–	45	90	98	182	98
COc1ccccc1C(=O)NCCNc1cccc(NS(=O)(=O)c2cc(-c3cc(Cl)cc(Cl)c3)ccc2OC)c1 [Example 27, N-(2-((3-(3′,5′-dichloro-4-methoxy-[1,1′-biphenyl]-3-ylsulfonamide)phenyl)amino)ethyl)-2-methoxybenzamide]	<5	<5	<5	–	–	–	–	–
COc1cccc(C(=O)NCCNc2cccc(NS(=O)(=O)c3cc(-c4cncc(OC)c4)ccc3OC)c2)c1 [Example 98, 3-methoxy-N-(2-((3-(2-methoxy-5-(5-methoxypyridin-3-yl)phenylsulfonamido)phenyl)amino)ethyl)benzamide]	<5	22	91	–	–	–	–	–
COc1ccc(-c2ccccc2F)cc1S(=O)(=O)Nc1cccc(NCCNC(=O)c2ccc(Cl)cc2)c1 [Example 9, 4-chloro-N-(2-((3-(2′-fluoro-4-methoxy-[1,1′-biphenyl]-3-ylsulfonamide)phenyl)amino)ethyl)benzamide]	<5	<5	<5	–	–	–	–	–
COc1ccc(-c2cccc(C(=O)N3CCCCC3)c2)cc1S(=O)(=O)Nc1cccc(NCCNC(=O)c2cccc(F)c2)c1 [Example 92, 3-fluoro-N-(2-((3-(4-methoxy-3′-(piperidine-1-carbonyl)-[1,1′-biphenyl]-3-ylsulfonamido)phenyl)amino)ethyl)benzamide]	–	–	–	27	92	94	–	–
COc1ccccc1C(=O)NCCNc1cccc(NS(=O)(=O)c2cc(-c3cccc(C(=O)N4CCC4)c3)ccc2OC)c1 [Example 81, N-(2-((3-(3′-(azetidine-1-carbonyl)-4-methoxy-[1,1′-biphenyl]-3-ylsulfonamido)phenyl)amino)ethyl)-2-methoxybenzamide]	–	–	–	75	98	98	365	85
COc1ccc(N(C)C)cc1C(=O)NCCNc1cccc(NS(=O)(=O)c2cc(-c3ccccc3F)ccc2OC)c1 [Example 5, 5-(dimethylamino)-N-(2-((3-(2′-fluoro-4-methoxy-[1,1′-biphenyl]-3-ylsulfonamide)phenyl)amino)ethyl)-2-methoxybenzamide]	<5	<5	23	–	–	–	–	–
COc1cc(C)c(-c2cccc(C(=O)N(C)C)c2)cc1S(=O)(=O)Nc1cccc(NCCNC(=O)c2cccnc2OC)c1 [Example 103, N-(2-((3-(3′-(dimethylcarbamoyl)-4-methoxy-6-methyl-[1,1′-biphenyl]-3-ylsulfonamido)phenyl)amino)ethyl)-2-methoxynicotinamide]	77	93	80	–	–	–	–	–
COc1ccccc1C(=O)NCCNc1cccc(NS(=O)(=O)c2cc(-c3c(F)cccc3OC)ccc2OC)c1 [Example 23, N-(2-((3-(2′-fluoro-4,6′-dimethoxy-[1,1′-biphenyl]-3-ylsulfonamide)phenyl)amino)ethyl)-2-methoxybenzamide]	<5	<5	<5	–	–	–	–	–
COc1ccccc1C(=O)NCCNc1cccc(NS(=O)(=O)c2cc(-c3ccccc3OC)ccc2OC)c1 [Example 12, N-(2-((3-(2′,4-dimethoxy-[1,1′-biphenyl]-3-ylsulfonamide)phenyl)amino)ethyl)-2-methoxybenzamide]	<5	44	73	–	–	–	–	–
COc1cncc(-c2ccc(OC)c(S(=O)(=O)Nc3cccc(NCCNC(=O)c4ccccc4OC)c3)c2)c1 [Example 97, 2-methoxy-N-(2-((3-(2-methoxy-5-(5-methoxypyridin-3-yl)phenylsulfonamido)phenyl)amino)ethyl)benzamide]	–	–	–	<5	12	37	–	–
COc1cccc(C(=O)NCCNc2cccc(NS(=O)(=O)c3cc(-c4cccc(Cl)c4)ccc3OC)c2)c1 [Example 29, N-(2-((3-(3′-chloro-4-methoxy-[1,1′-biphenyl]-3-ylsulfonamide)phenyl)amino)ethyl)-3-methoxybenzamide]	<5	16	73	–	–	–	800	54
COc1ccccc1C(=O)NCCNc1cccc(NS(=O)(=O)c2cc(-c3ccccc3C(=O)N(C)C)ccc2OC)c1 [Example 79, 4′-methoxy-3′-(N-(3-((2-(2-methoxybenzamido)ethyl)amino)phenyl)sulfamoyl)-N,N-dimethyl-[1,1′-biphenyl]-2-carboxamide]	–	–	–	<5	18	34	–	–
COc1cccc(-c2ccc(OC)c(S(=O)(=O)Nc3cccc(NCCNC(=O)c4ccccc4OC)c3)c2)n1 [Example 94, 2-methoxy-N-(2-((3-(2-methoxy-5-(6-methoxypyridin-2-yl)phenylsulfonamido)phenyl)amino)ethyl)benzamide]	–	–	–	<5	<5	22	–	–
COc1ccc(-c2cccc(C(=O)N(C)C)c2)cc1S(=O)(=O)Nc1cccc(NCCNC(=O)c2nccn2C)c1 [Example 63, N-(2-((3-(3′-(dimethylcarbamoyl)-4-methoxy-[1,1′-biphenyl]-3-ylsulfonamido)phenyl)amino)ethyl)-1-methyl-1H-imidazole-2-carboxamide]	–	–	–	<5	81	82	–	–
COc1ccc(-c2cccc(C(=O)N(C)C)c2)cc1S(=O)(=O)Nc1cccc(NCCNC(=O)c2cn(C)cn2)c1 [Example 64, N-(2-((3-(3′-(dimethylcarbamoyl)-4-methoxy-[1,1′-biphenyl]-3-ylsulfonamido)phenyl)amino)ethyl)-1-methyl-1H-imidazole-4-carboxamide]	–	–	–	<5	68	72	–	–
